Patent publication US10092515B2, “Liposomal formulations of polymyxin B and uses thereof” (University of Houston System, priority 2012, dated 2018)

Key:
[1] = Onset of nephrotoxicity (serum creatinine >=2-fold baseline) at escalating daily doses; type: in vivo, Sprague-Dawley rats; details: rats
Description: Female Sprague-Dawley rats (225 to 250 g) (Harlan, Indianapolis, Ind.) were used. The rats received food and water ad libitum. All animals were cared for in accordance with the highest humane and ethical standards, as approved by the Institutional Animal Care and Use Committee (IACUC) of the University of Houston. The jugular veins of selected animals were cannulated to facilitate intravenous drug administration.
Prior to each experiment, polymyxin B for injection (USP) was reconstituted with sterile water for injection (USP) and diluted to achieve the desired concentration. The reconstituted drug solution was stored at −80° C. in aliquots and thawed immediately before dosing.
To mimic a clinical course of polymyxin B treatment, three groups of rats (n=13 each) were administered escalating dose levels of polymyxin B (5 mg/kg, 10 mg/kg, and 20 mg/kg, respectively) once daily subcutaneously for up to 7 days. Blood samples (approximately 200 μl) were drawn via the tail vein at baseline and on a daily basis (before dosing when applicable). Blood was allowed to clot on ice, and serum was separated by centrifugation at 4,000×g for 10 min. Serum samples (100 μl) were further assayed for creatinine levels by use of a clinical chemistry analyzer (Piccolo Xpress; Abaxis, Inc., Union City, Calif.). A significant elevation in serum creatinine (≥2-fold […] the baseline level) was set as the endpoint for nephrotoxicity. Kaplan-Meier survival analysis and a log rank (Mantel-Cox) test were used to compare the times of onset of nephrotoxicity among various groups. Right censoring was used if the nephrotoxicity endpoint was not observed by day 7.

[2] = Renal tissue concentration of polymyxin B at escalating dose levels; type: in vivo, Sprague-Dawley rats; details: rats, 24 h after first dose, summed components
Description: (§1) A validated ultraperformance liquid chromatography-tandem mass spectrometry (UPLC/MS-MS) method was modified to determine the concentrations of polymyxin B in rat serum and renal tissues, as previously described (32). The lower limit of quantification (LLOQ) was 50 ng/ml for all the major components of polymyxin B in serum as well as the renal tissue homogenate.
To determine the renal tissue concentration of polymyxin B, three rats from each dosing group were randomly selected and sacrificed at 24 h after the first dose; kidneys were harvested and homogenized. A fixed time point was selected to avoid any potential confounding due to different cumulative doses received when nephrotoxocity was observed. The concentrations of the major components of polymyxin B (polymyxin B1, polymyxin B2, polymyxin B3, and isoleucine polymyxin B1) were determined in […] as described above.
For the purpose of drug quantification in the renal tissue homogenates, the estimated concentrations were divided by the total weight of the kidney and the final concentrations were expressed per gram of renal tissue (in micrograms/gram). The summed concentrations of individual components were used to estimate the overall renal drug exposure (33). One-way analysis of variance (ANOVA) and then post hoc Tukey's test were used to compare the mean renal tissue concentrations among the dosing groups, and P values of <0.05 were considered significant.

[3] = Polymyxin B pharmacokinetics in megalin-shedding rats (serum and renal tissue); type: in vivo, Sprague-Dawley rats; details: for AUC0-∞, renal tissue/AUC0-∞, serum ratio / AUC0-∞, renal tissue / AUC0-∞, serum / renal tissue polymyxin B concentration (3 h postdosing): rats, 3 mg/kg IV
Description: as §1
To study the impact of sodium maleate pretreatment on systemic/renal exposure of polymyxin B, the rats were divided into two groups (n=13 each). Animals in both control and experimental groups were administered a single intravenous dose of 3 mg/kg of polymyxin B sulfate (USP). The intravenous route of polymyxin B administration was preferred to avoid any interference with drug absorption at the injection site. In addition, the animals in the experimental group were given 400 mg/kg of sodium maleate intraperitoneally 3 to 6 h prior to polymyxin B administration. Serum samples were obtained at 1.5, 3, 4.5, 6, and 7.5 h after polymyxin B dosing. In addition, the rats were sacrificed to harvest the kidneys at 3, 6, and 24 h (n=3 at each time point) postdosing. Polymyxin B concentrations in serum and renal tissue samples were assayed by the validated UPLC-MS/MS method detailed above.
The mean concentrations of polymyxin B in serum, as well as in renal tissue samples, at each time point were used. A modified two-compartment model (data not shown) was used to cofit the serum/renal tissue concentration-time profiles using ADAPT 5 (University of Southern California, Los Angeles, Calif.). Using the best-fit parameters, the AUC0-∞ was estimated by integrating instantaneous concentrations with respect to time. The AUC0-∞, renal tissue/AUC0-∞, serum ratio was used as an index to quantitatively assess preferential accumulation of polymyxin B in renal tissue.
To further examine whether the effect of sodium maleate on the renal accumulation of polymyxin B is transient, three additional rats were given a single dose of 400 mg/kg of sodium maleate intraperitoneally. Two weeks later, the animals were given a single dose of 3 mg/kg of polymyxin B intravenously. The rats were sacrificed at 3 h postdosing; kidneys were harvested and homogenized. Polymyxin B concentrations in renal tissue samples were assayed by the validated UPLC-MS/MS method.

[4] = test system: multiple drug resistant (MDR) Pseudomonas aeruginosa strain (PA 9019); details: PA 9019, previously determined; cited from earlier work
[5] = test system: P. aeruginosa ATCC 27853 (PA 27853); details: PA 27853, previously determined; cited from earlier work
[6] = experimental group: 400 mg/kg sodium maleate i.p. 3 to 6 h before

With Polymyxin B the “animals that reached the predefined nephrotoxicity endpoint by day 7” value ([1]; 5 mg/kg once daily subcutaneously up to 7 days) was “none”, the “animals that reached the nephrotoxicity endpoint within the first 48 h of treatment” value ([1]; 10 mg/kg daily subcutaneously) was 1 out of 10 and the “animals that reached the nephrotoxicity endpoint within the first 48 h of treatment” value ([1]; 20 mg/kg daily subcutaneously) was 8 out of 10. For the same substance, the “animals that reached the predefined nephrotoxicity endpoint (serum creatinine >=2-fold baseline)” value ([1]; 20 mg/kg once daily subcutaneously up to 7 days) was 10 out of 10, the “concentration of polymyxin B in renal tissue” value (“concentration of polymyxin B” for short) ([2]; 5-mg/kg dosing group) was 3.6 ± 0.4 µg/g and the “concentration of polymyxin B” value ([2]; 10-mg/kg dosing group) was 9.9 ± 1.5 µg/g. The “concentration of polymyxin B” value ([2]; 20-mg/kg dosing group) was 21.7 ± 4.8 µg/g, the “attenuation of polymyxin B exposure in renal tissue after pretreatment with maleate” value ([3]; megalin-shedding rats vs control) was “approximately 40%” and the “AUC0-∞, renal tissue/AUC0-∞, serum ratio” value ([3]; control group) was 19.1. The “AUC0-∞, renal tissue” value ([3]; control group (no maleate)) was 211900 ng·h/mL, the “AUC0-∞, serum” value ([3]; control group (no maleate)) was 10400 ng·h/mL and the “renal tissue polymyxin B concentration (3 h postdosing)” value ([3]; control rats) was 11.45 µg/g. For the same substance, the “AUC0-∞, renal tissue/AUC0-∞, serum ratio” value ([3]; experimental group (maleate pretreatment)) was 11.6, the “AUC0-∞, renal tissue” value [3, 6] was 121000 ng·h/mL and the “AUC0-∞, serum” value [3, 6] was 11100 ng·h/mL. The “renal tissue polymyxin B concentration (3 h postdosing)” value ([3]; sodium maleate 400 mg/kg given 2 weeks earlier) was 11.08 µg/g, the “minimum inhibitory concentration (MIC)” value [4] was 4 µg/mL and the “minimum inhibitory concentration (MIC)” value [5] was 2 µg/mL.
